Assay results reported in patent US20090018166A1, “New Pyridine Analogues X 161” (ASTRAZENECA AB, priority 2007, published 2009).

Target: T1, P2Y12 receptor (Homo sapiens, UniProt Q9H244)
T1 construct: expressed in transfected cells; host or cells: CHO cells (membranes)
Assay: Functional inhibition of 2-Me-S-ADP induced P2Y12 signalling (35S-GTPγS binding, membranes from P2Y12 transfected CHO-cells)
Format: biochemical
Details: 35S-GTPγS, EC80 of 2-methyl-thio-adenosine diphosphate, P2Y12 CHO membranes; value given in each example; read-out: GTPγS(IC50 μM)
Procedure: Functional inhibition of- the P2Y12 receptor can be measured by in vitro assays using cell membranes from P2Y12 transfected CHO-cells, the methodology is indicated below.
Functional inhibition of 2-Me-S-ADP induced P2Y12 signalling: 5 μg of membranes were diluted in 200 μl of 200 mM NaCl, 1 mM MgCl2, 50 mM HEPES (pH 7.4), 0.01% BSA, 30 μg/ml saponin and 10 μM GDP. To this was added an EC80 concentration of agonist (2-methyl-thio-adenosine diphosphate), the required concentration of test compound and 0.1 μCi ^35S-GTPγS. The reaction was allowed to proceed at 30° C. for 45 min. Samples were then transferred on to GF/B filters using a cell harvester and washed with wash buffer (50 mM Tris (pH 7.4), 5 mM MgCl2, 50 mM NaCl). Filters were then covered with scintilant and counted for the amount of ^35S-GTPγS retained by the filter. Maximum activity was that determined in the presence of the agonist and minimum activity in the absence of the agonist following subtraction of the value determined for non-specific activity. The effect of compounds at various concentrations was plotted according to the equation
y=A+((B−A)/(1+((C/x)̂D)))
and IC50 estimated where A is the bottom plateau of the curve i.e. the final minimum y value B is the top of the plateau of the curve i.e. the final maximum y value C is the x value at the middle of the curve. This represents the log EC50 value when A+B=100 D is the slope factor. x is the original known x values. Y is the original known y values.

T1 sequence (Q9H244 whole entry): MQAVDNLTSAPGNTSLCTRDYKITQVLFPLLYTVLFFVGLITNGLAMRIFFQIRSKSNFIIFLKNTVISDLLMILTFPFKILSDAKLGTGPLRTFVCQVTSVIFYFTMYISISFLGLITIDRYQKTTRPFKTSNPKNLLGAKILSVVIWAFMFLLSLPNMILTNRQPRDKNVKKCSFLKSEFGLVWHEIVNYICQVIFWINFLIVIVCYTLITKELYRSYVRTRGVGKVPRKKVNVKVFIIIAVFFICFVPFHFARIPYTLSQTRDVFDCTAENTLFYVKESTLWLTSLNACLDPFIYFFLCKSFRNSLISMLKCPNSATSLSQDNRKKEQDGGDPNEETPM

Structure (SMILES) | IC50 [µM]
CCCCC(=O)c1cc(C#N)c(N2CCC(C(=O)NS(=O)(=O)Cc3ccc(C(C)C)cc3)CC2)nc1CN1CCCC1=O [Example 49, 1-{3-cyano-6-[(2-oxopyrrolidin-1-yl)methyl]-5-pentanoylpyridin-2-yl}-N-[(4-isopropylbenzyl)sulfonyl]piperidine-4-carboxamide] | 0.031
C=CCCC(=O)c1cc(Cl)c(N2CCC(C(=O)NS(=O)(=O)N(C)c3ccc(F)cc3)CC2)nc1CN1CCCC1=O [Example 50, 1-{3-chloro-6-[(2-oxopyrrolidin-1-yl)methyl]-5-pent-4-enoylpyridin-2-yl}-N-{[(4-fluorophenyl)(methyl)amino]sulfonyl}piperidine-4-carboxamide] | 0.167
C=CCCC(=O)c1cc(Cl)c(N2CCC(C(=O)NS(=O)(=O)Cc3ccccc3)CC2)nc1CN1CCCC1=O [Example 51, N-(benzylsulfonyl)-1-{3-chloro-6-[(2-oxopyrrolidin-1-yl)methyl]-5-pent-4-enoylpyridin-2-yl}piperidine-4-carboxamide] | 0.069
CCCC(=O)c1cc(Cl)c(N2CCC(C(=O)NS(=O)(=O)CC3CCCCC3)CC2)nc1CN1CCCC1=O [Example 52, 1-{5-butyryl-3-chloro-6-[(2-oxopyrrolidin-1-yl)methyl]pyridin-2-yl}-N-[(cyclohexylmethyl)sulfonyl]piperidine-4-carboxamide] | 0.231
CCCC(=O)c1cc(Cl)c(N2CCC(C(=O)NS(=O)(=O)Cc3ccc(F)cc3F)CC2)nc1CN1CCCC1=O [Example 53, 1-{5-butyryl-3-chloro-6-[(2-oxopyrrolidin-1-yl)methyl]pyridin-2-yl}-N-[(2,4-difluorobenzyl)sulfonyl]piperidine-4-carboxamide] | 0.032
CCCCC(=O)c1cc(Cl)c(N2CCC(C(=O)NS(=O)(=O)CC3CCCC3)CC2)nc1CN1CCCC1=O [Example 54, 1-{3-chloro-6-[(2-oxopyrrolidin-1-yl)methyl]-5-pentanoylpyridin-2-yl}-N-[(cyclopentylmethyl)sulfonyl]piperidine-4-carboxamide] | 0.938
CCCCC(=O)c1cc(Cl)c(N2CCC(C(=O)NS(=O)(=O)Cc3ccc(F)cc3F)CC2)nc1CN1CCCC1=O [Example 55, 1-{3-chloro-6-[(2-oxopyrrolidin-1-yl)methyl]-5-pentanoylpyridin-2-yl}-N-[(2,4-difluorobenzyl)sulfonyl]piperidine-4-carboxamide] | 0.226
CCCCC(=O)c1cc(Cl)c(N2CCC(C(=O)NS(=O)(=O)N(C)c3ccc(F)cc3)CC2)nc1CN1CCCC1=O [Example 56, 1-{3-chloro-6-[(2-oxopyrrolidin-1-yl)methyl]-5-pentanoylpyridin-2-yl}-N-{[(4-fluorophenyl)(methyl)amino]sulfonyl}piperidine-4-carboxamide] | 0.247
CCCCC(=O)c1cc(Cl)c(N2CCC(C(=O)NS(=O)(=O)Cc3ccccc3)CC2)nc1CN1CCCC1=O [Example 57, N-(benzylsulfonyl)-1-{3-chloro-6-[(2-oxopyrrolidin-1-yl)methyl]-5-pentanoylpyridin-2-yl}piperidine-4-carboxamide] | 0.079
N#Cc1cc(C(=O)CCC(F)(F)F)c(CN2CCCC2=O)nc1N1CCC(C(=O)NS(=O)(=O)Cc2ccccc2)CC1 [Example 58, N-(benzylsulfonyl)-1-{3-cyano-6-[(2-oxopyrrolidin-1-yl)methyl]-5-(4,4,4-trifluorobutanoyl)pyridin-2-yl}piperidine-4-carboxamide] | 0.084
CCCCC(=O)c1cc(Cl)c(N2CCC(C(=O)NS(=O)(=O)Cc3ccc(Cl)cc3)CC2)nc1CN1CCCC1=O [Example 59, N-[(4-chlorobenzyl)sulfonyl]-1-{3-chloro-6-[(2-oxopyrrolidin-1-yl)methyl]-5-pentanoylpyridin-2-yl}piperidine-4-carboxamide] | 0.132
CCCCC(=O)c1cc(Cl)c(N2CCC(C(=O)NS(=O)(=O)C(C)c3ccccc3)CC2)nc1CN1CCCC1=O (stereo not drawn) [Example 60, 1-{3-chloro-6-[(2-oxopyrrolidin-1-yl)methyl]-5-pentanoylpyridin-2-yl}-N-[(1-phenylethyl)sulfonyl]piperidine-4-carboxamide] | 0.268
CCCCC(=O)c1cc(C#N)c(N2CCC(C(=O)NS(=O)(=O)C(C)c3ccccc3)CC2)nc1CN1CCCC1=O (stereo not drawn) [Example 61, 1-{3-cyano-6-[(2-oxopyrrolidin-1-yl)methyl]-5-pentanoylpyridin-2-yl}-N-[(1-phenylethyl)sulfonyl]piperidine-4-carboxamide] | 0.033
CCc1cnc(-c2cc(C#N)c(N3CCC(C(=O)NS(=O)(=O)N(C)c4ccc(F)cc4)CC3)nc2CN2CCCC2=O)o1 [Example 62, 1-{3-cyano-5-(5-ethyl-1,3-oxazol-2-yl)-6-[(2-oxopyrrolidin-1-yl)methyl]pyridin-2-yl}-N-{[(4-fluorophenyl)(methyl)amino]sulfonyl}piperidine-4-carboxamide] | 0.03
CCc1cnc(-c2cc(C#N)c(N3CCC(C(=O)NS(=O)(=O)Cc4ccccc4)CC3)nc2CN2CCCC2=O)o1 [Example 63, N-(benzylsulfonyl)-1-{3-cyano-5-(5-ethyl-1,3-oxazol-2-yl)-6-[(2-oxopyrrolidin-1-yl)methyl]pyridin-2-yl}piperidine-4-carboxamide] | 0.021
CCc1cnc(-c2cc(Cl)c(N3CCC(C(=O)NS(=O)(=O)N(C)c4ccc(F)cc4)CC3)nc2CN2CCCC2=O)o1 [Example 64, 1-{3-chloro-5-(5-ethyl-1,3-oxazol-2-yl)-6-[(2-oxopyrrolidin-1-yl)methyl]pyridin-2-yl}-N-{[(4-fluorophenyl)(methyl)amino]sulfonyl}piperidine-4-carboxamide] | 0.45
CCc1cnc(-c2cc(Cl)c(N3CCC(C(=O)NS(=O)(=O)Cc4ccccc4)CC3)nc2CN2CCCC2=O)o1 [Example 65, N-(benzylsulfonyl)-1-{3-chloro-5-(5-ethyl-1,3-oxazol-2-yl)-6-[(2-oxopyrrolidin-1-yl)methyl]pyridin-2-yl}piperidine-4-carboxamide] | 0.17
CCCC(=O)c1cc(Cl)c(N2CCC(C(=O)NS(=O)(=O)Cc3ccccc3)CC2)nc1CN1CCCCC1=O [Example 66, N-(benzylsulfonyl)-1-{5-butyryl-3-chloro-6-[(2-oxopiperidin-1-yl)methyl]pyridin-2-yl}piperidine-4-carboxamide] | 0.252
CCCC(=O)c1cc(Cl)c(N2CCC(C(=O)NS(=O)(=O)N(C)c3ccc(F)cc3)CC2)nc1CN1CCCCC1=O [Example 67, 1-{5-Butyryl-3-chloro-6-[(2-oxopiperidin-1-yl)methyl]pyridin-2-yl}-N-{[(4-fluorophenyl)(methyl)amino]sulfonyl}piperidine-4-carboxamide] | 0.445
CCCC(=O)c1cc(Cl)c(N2CCC(C(=O)N(C)S(=O)(=O)N(C)c3ccc(F)cc3)CC2)nc1CN1CCCC1=O [Example 69, 1-{5-Butyryl-3-chloro-6-[(2-oxopyrrolidin-1-yl)methyl]pyridin-2-yl}-N-{[(4-fluorophenyl)(methyl)amino]sulfonyl}-N-methylpiperidine-4-carboxamide] | 3.67
CCCC(=O)c1cc(C#N)c(N2CCC(C(=O)N(C)S(=O)(=O)CC3CCCC3)CC2)nc1CN1CCCC1=O [Example 70, 1-{5-Butyryl-3-cyano-6-[(2-oxopyrrolidin-1-yl)methyl]pyridin-2-yl}-N-[(cyclopentylmethyl)sulfonyl]-N-methylpiperidine-4-carboxamide] | 0.903
